{"source": "patent US7491849B2", "about": "“Oligoamine compounds and derivatives thereof for cancer therapy” (priority 2001, dated 2009)", "test_system": "PC-3 Cells", "test": "Colony forming assay (CFE), PC-3 cells", "format": "cell-based", "conditions": "ca. 1.5-2 μM, 5 days incubation, FIG. 2", "protocol": "Assessment of Oligoamine Cytotoxicity by Colony Forming Assay. The cytotoxicity of the oligoamines was further assayed by the colony forming assay (CFE). Four saturated oligoamines were chosen for their ability to kill DuPro cells after 5 days of incubation. Oligoamines SL-11159, SL-11175 and SL-11226 had over 4 logs of cell kill on day 5 of treatment at 1-2 μM concentrations; see FIG. 1. […] The colony forming assay was performed as follows.\nColony Forming Efficiency Assay. All cell lines used in this assay have already been optimized with respect to the number of feeder cells and length of incubation time for observable colony formation. Cells were washed, harvested, and replated in quadruplicate at appropriate dilution into 60 mm plastic Petri dishes. The Petri dishes were prepared not more than 24 hr in advance with 4 ml of supplemented Eagle's minimum essential medium containing 5-10% fetal bovine serum (standardized for each cell line) for all cell lines. Cells were incubated for the previously standardized number of days in a 95% air/5% CO2 atmosphere. The plates were stained with 0.125% crystal violet in methanol and counted. Results are expressed as the surviving fraction of an appropriate control.", "data": [{"smiles": "CCNCCCCNCCCCNCCCCNCCCCNCCCCNCCCCNCCCCNCCCCNCCCCNCC.Cl.Cl.Cl.Cl.Cl.Cl.Cl.Cl.Cl.Cl", "note": "[SL-11159]", "values": [{"measurement": "logs of cells killed (colony survival)", "result": "four"}]}]}
